Experimental data: ChEMBL document CHEMBL3046814, “Induction effects of host plants on insecticide susceptibility and detoxification enzymes of Bemisia tabaci (Hemiptera: Aleyrodidae)” (2011)
In brackets after ≈: the same amount, converted by molar mass.

What was measured:
Assay type in all cases: functional
[1] = system: Bemisia tabaci; experiment: Insecticidal activity against Bemisia tabaci (sweet potato whitefly) infested cabbage leaves assessed as mortality after 48 hr by leaf dip method; details: foliar
[2] = system: Bemisia tabaci; experiment: Insecticidal activity against Bemisia tabaci (sweet potato whitefly) infested tomato leaves assessed as mortality after 48 hr by leaf dip method; details: foliar
[3] = system: Bemisia tabaci; experiment: Insecticidal activity against Bemisia tabaci (sweet potato whitefly) infested cucumber leaves assessed as mortality after 48 hr by leaf dip method; details: foliar
[4] = system: Bemisia tabaci; experiment: Insecticidal activity against Bemisia tabaci (sweet potato whitefly) infested cotton leaves assessed as mortality after 48 hr by leaf dip method; details: foliar
[5] = system: Bemisia tabaci; experiment: Insecticidal activity against Bemisia tabaci (sweet potato whitefly) infested poinsettia leaves assessed as mortality after 48 hr by leaf dip method; details: foliar
[6] = system: Bemisia tabaci; experiment: Resistance ratio of LC50 for Bemisia tabaci (sweet potato whitefly) infested poinsettia leaves to LC50 for Bemisia tabaci (sweet potato whitefly) infested cucumber leaves
[7] = system: Bemisia tabaci; experiment: Resistance ratio of LC50 for Bemisia tabaci (sweet potato whitefly) infested poinsettia leaves to LC50 for Bemisia tabaci (sweet potato whitefly) infested tomato leaves
[8] = system: Bemisia tabaci; experiment: Resistance ratio of LC50 for Bemisia tabaci (sweet potato whitefly) infested squash leaves to LC50 for Bemisia tabaci (sweet potato whitefly) infested cabbage leaves
[9] = system: Bemisia tabaci; experiment: Resistance ratio of LC50 for Bemisia tabaci (sweet potato whitefly) infested squash leaves to LC50 for Bemisia tabaci (sweet potato whitefly) infested cotton leaves
[10] = system: Bemisia tabaci; experiment: Resistance ratio of LC50 for Bemisia tabaci (sweet potato whitefly) infested poinsettia leaves to LC50 for Bemisia tabaci (sweet potato whitefly) infested cabbage leaves

Row | Compound | LC50 [1] | LC50 [2] | LC50 [3] | LC50 [4] | LC50 [5] | RatioLC50 [6] | RatioLC50 [7] | RatioLC50 [8] | RatioLC50 [9] | RatioLC50 [10]
1 | CC[C@H](C)[C@H]1O[C@]2(C=C[C@@H]1C)C[C@@H]1C[C@@H](C/C=C(\C)[C@@H](O[C@H]3C[C@H](OC)[C@@H](O[C@H]4C[C@H](OC)[C@@H](O)[C@H](C)O4)[C@H](C)O3)[C@@H](C)/C=C/C=C3\CO[C@@H]4[C@H](O)C(C)=C[C@@H](C(=O)O1)[C@]34O)O2.CO[C@H]1C[C@H](O[C@H]2[C@H](C)O[C@@H](O[C@@H]3/C(C)=C/C[C@@H]4C[C@@H](C[C@]5(C=C[C@H](C)[C@@H](C(C)C)O5)O4)OC(=O)[C@@H]4C=C(C)[C@@H](O)[C@H]5OC/C(=C\C=C\[C@@H]3C)[C@]54O)C[C@@H]2OC)O[C@@H](C)[C@@H]1O [ABAMECTIN] | 0.3 µg/mL | 0.4 µg/mL | 0.5 µg/mL | 0.7 µg/mL | 0.74 µg/mL |  |  |  |  | 
2 | C/C(=N\C#N)N(C)Cc1ccc(Cl)nc1 [ACETAMIPRID] | 17.7 µg/mL (≈ 79.5 µM) | 8.73 µg/mL (≈ 39.2 µM) | 12.4 µg/mL (≈ 55.7 µM) | 66.4 µg/mL (≈ 298 µM) | 129 µg/mL (≈ 579 µM) | 10.34 | 14.8 |  |  | 
3 | Cc1c(COC(=O)[C@@H]2[C@H](/C=C(\Cl)C(F)(F)F)C2(C)C)cccc1-c1ccccc1 [BIFENTHRIN] | 145 µg/mL (≈ 343 µM) | 115 µg/mL (≈ 272 µM) | 462 µg/mL (≈ 1090 µM) | 228 µg/mL (≈ 539 µM) | 278 µg/mL (≈ 657 µM) |  | 4.02 | 7.5 | 7.5 | 3.19
4 | CCCCN(CCCC)SN(C)C(=O)Oc1cccc2c1OC(C)(C)C2 [CARBOSULFAN] | 696 µg/mL (≈ 1830 µM) | 586 µg/mL (≈ 1540 µM) | 3090 µg/mL (≈ 8110 µM) | 2880 µg/mL (≈ 7560 µM) | 3730 µg/mL (≈ 9790 µM) |  | 6.36 |  |  | 5.36
5 | CCOP(=S)(OCC)Oc1nc(Cl)c(Cl)cc1Cl [CHLORPYRIFOS] | 722 µg/mL (≈ 2060 µM) | 581 µg/mL (≈ 1660 µM) | 924 µg/mL (≈ 2640 µM) | 1410 µg/mL (≈ 4030 µM) | 2120 µg/mL (≈ 6040 µM) |  | 3.65 |  |  | 
6 | N#Cc1nn(-c2c(Cl)cc(C(F)(F)F)cc2Cl)c(N)c1[S+]([O-])C(F)(F)F (centres undefined) [FIPRONIL] | 3.82 µg/mL (≈ 8.74 µM) | 5.96 µg/mL (≈ 13.6 µM) | 8.79 µg/mL (≈ 20.1 µM) | 3.51 µg/mL (≈ 8.03 µM) | 9.13 µg/mL (≈ 20.9 µM) |  |  |  |  | 
